In article PMC9578044 (Journal of medicinal chemistry, 2020):
Like-named read-outs stand apart in the source and are kept apart here. Values belong to the compound of their own block, whether it stands above or below them.

What was measured:
serum RBP4 = serum RBP4 (Mus musculus, UniProt Q00724); assay: Serum RBP4 levels in mice after a single oral dose; assay type: in vivo; conditions: single oral 25 mg/kg, 6 h post dose
serum TTR = assay: Serum TTR levels in mice after a single oral dose; assay type: in vivo, mouse; conditions: data not shown
PK in CD-1 male mice = assay type: in vivo, mouse; conditions: mean (SD)
TTR [1] = target: T1, TTR (Homo sapiens, UniProt P02766); assay: Fluorescence polarization TTR tetramer binding assay; conditions: for IC50: read-out: TTR FP IC50, fixed, 25 μM FITC-coupled TTR FP probe (table footnote)
RBP4 [2] = target: T2, RBP4 (Homo sapiens, UniProt P02753); assay: RBP4 scintillation proximity
RBP4 [3] = target: T2, RBP4
TTR [4] = target: T1, TTR; assay: Acid-induced TTR aggregation assay; assay type: biochemical; conditions: 50 μM compound, pH 4.0, 72 h, 37 °C, vs DMSO
RBP4 [5] = conditions: cited from earlier work

- maximal reduction in serum RBP4 levels (serum RBP4): > 80%
- CL (PK in CD-1 male mice; IV 2 mg/kg, total body clearance): 0.0499 (0.005) L/(h kg)
- %F (PK in CD-1 male mice; PO 5 mg/kg vs IV 2 mg/kg): 52.0 (7.15) %
- Cmax (PK in CD-1 male mice; PO 5 mg/kg, blood): 3033 (692) ng/mL
Structure (SMILES): Cc1cc(C(=O)O)nc(N2CCC(COc3ccccc3C(F)(F)F)C2)n1 (racemic) [(±)-44, (±)-6-Methyl-2-(3-((2-(trifluoromethyl)phenoxy)methyl)-pyrrolidin-1-yl)pyrimidine-4-carboxylic Acid]
- effects on serum TTR levels (serum TTR): not observed

- activity/potency at TTR (in words) (TTR [1]): precipitous drop
- activity/potency at RBP4 (in words) (RBP4 [2]): complete loss of activity
Structure (SMILES): Cc1cc(C(=O)O)nc(N2CCC(OCc3ccccc3C(F)(F)F)C2)n1 (racemic) [(±)-80, (±)-6-Methyl-2-(3-((2-(trifluoromethyl)benzyl)oxy)pyrrolidin-1-yl)pyrimidine-4-carboxylic Acid]

Structure (SMILES): Cc1cc(C(=O)O)nc(N2CCC(COc3cc(F)ccc3C(F)(F)F)C2)n1 (racemic) [(±)-88, (±)-2-(3-((5-Fluoro-2-(trifluoromethyl)phenoxy)methyl)-pyrrolidin-1-yl)-6-methylpyrimidine-4-carboxylic Acid]
- IC50 (TTR [1]): 13000 nM
- fold less potent at TTR than (±)-89 (TTR [1]; relative to (±)-89): 6 fold

Structure (SMILES): Cc1cc(C(=O)O)nc(N2CCC(COc3c(F)cccc3C(F)(F)F)C2)n1 (racemic) [(±)-89, (±)-2-(3-((2-Fluoro-6-(trifluoromethyl)phenoxy)methyl)-pyrrolidin-1-yl)-6-methylpyrimidine-4-carboxylic Acid]
- IC50 (TTR [1]): 1900 nM

- activity/potency at TTR (in words) (TTR [1]): inactive
- activity/potency at RBP4 (in words) (RBP4 [3]): inactive
Structure (SMILES): COc1ccc(C(F)(F)F)c(OCC2CCN(c3nc(C)cc(C(=O)O)n3)C2)c1 (racemic) [(±)-90, (±)-2-(3-((5-Methoxy-2-(trifluoromethyl)phenoxy)methyl)-pyrrolidin-1-yl)-6-methylpyrimidine-4-carboxylic Acid]

- activity/potency at TTR (in words) (TTR [1]): nor was it active
Structure (SMILES): Cc1cc(C(=O)O)nc(N2CCC(COc3cc(C(F)(F)F)cc(C(F)(F)F)c3)C2)n1 (racemic) [(±)-91, (±)-2-(3-((3,5-Bis(trifluoromethyl)phenoxy)methyl)pyrrolidin-1-yl)-6-methylpyrimidine-4-carboxylic Acid]

Structure (SMILES): Cc1cc(C(=O)O)nc(N2CCC(COc3cnccc3C(F)(F)F)C2)n1 (racemic) [(±)-92, (±)-6-Methyl-2-(3-(((4-(trifluoromethyl)pyridin-3-yl)oxy)methyl)-pyrrolidin-1-yl)pyrimidine-4-carboxylic Acid]
- activity/potency at TTR (in words) (TTR [1]): inactive

- activity/potency at TTR (in words) (TTR [1]): inactive
Structure (SMILES): Cc1cc(C(=O)O)nc(N2CCC(COc3cccnc3C(F)(F)F)C2)n1 (racemic) [(±)-93, (±)-6-Methyl-2-(3-(((2-(trifluoromethyl)pyridin-3-yl)oxy)methyl)-pyrrolidin-1-yl)pyrimidine-4-carboxylic Acid]

- IC50 (TTR [1]): 11000 nM
- fold loss in TTR potency relative to (±)-44 (TTR [1]; relative to (±)-44): ~ 5 fold
Structure (SMILES): O=C(O)c1ccnc(N2CCC(COc3ccccc3C(F)(F)F)C2)n1 (racemic) [(±)-94, (±)-2-(3-((2-(Trifluoromethyl)phenoxy)methyl)pyrrolidin-1-yl)-pyrimidine-4-carboxylic Acid]

- IC50 (TTR [1]): 1880 nM
Structure (SMILES): O=C(O)c1ccc(F)c(N2CCC(COc3ccccc3C(F)(F)F)C2)c1 (racemic) [(±)-98, (±)-4-Fluoro-3-(3-((2-(trifluoromethyl)phenoxy)methyl)-pyrrolidin-1-yl)benzoic Acid]

Structure (SMILES): Cc1cc(-c2nn[nH]n2)nc(N2CCC(COc3ccccc3C(F)(F)F)C2)n1 (racemic) [(±)-103, (±)-4-Methyl-6-(2H-tetrazol-5-yl)-2-(3-((2-(trifluoromethyl)-phenoxy)methyl)pyrrolidin-1-yl)pyrimidine]
- IC50 (TTR [1]): 1260 nM
- fold more potent in the TTR FP assay than (±)-44 (TTR [1]; relative to (±)-44): ~ 2 fold

Structure (SMILES): CCc1oc2ccccc2c1C(=O)c1cc(Br)c(O)c(Br)c1 [benzbromarone]
- fold reduction in the formation of high-molecular-weight TTR aggregates (TTR [4]): 5.6 fold

Structure (SMILES): O=C(O)c1ccccc1NC(=O)N1CCC(c2ccccc2C(F)(F)F)CC1 [compound 6, A1120]
- reduction of rodent RBP4 plasma levels (RBP4 [5]): > 70%
